Measurements from the NIST ThermoML archive (doi:10.1021/je900596d).
± gives the expanded uncertainty stated by the source.

Conditions: Vibrating tube method

FC(F)=C(F)C(F)(F)F [hexafluoropropene]
Conditions | mass density [kg/m3]
323.21 K, 828.7 kPa, Fluid (supercritical or subcritical phases) | 54.45 ± 0.08
323.21 K, 843.1 kPa, Fluid (supercritical or subcritical phases) | 55.34 ± 0.09
323.21 K, 857.3 kPa, Fluid (supercritical or subcritical phases) | 56.72 ± 0.08
323.21 K, 871.6 kPa, Fluid (supercritical or subcritical phases) | 57.78 ± 0.08
323.21 K, 885.7 kPa, Fluid (supercritical or subcritical phases) | 58.95 ± 0.08
323.21 K, 899.5 kPa, Fluid (supercritical or subcritical phases) | 60.25 ± 0.08
323.21 K, 913.3 kPa, Fluid (supercritical or subcritical phases) | 61.27 ± 0.08
323.21 K, 926.9 kPa, Fluid (supercritical or subcritical phases) | 62.44 ± 0.09
323.21 K, 940.4 kPa, Fluid (supercritical or subcritical phases) | 63.5 ± 0.09
323.21 K, 953.6 kPa, Fluid (supercritical or subcritical phases) | 64.78 ± 0.09
323.21 K, 979.1 kPa, Fluid (supercritical or subcritical phases) | 66.9 ± 0.09
323.21 K, 991.3 kPa, Fluid (supercritical or subcritical phases) | 67.99 ± 0.1
323.21 K, 1002.7 kPa, Fluid (supercritical or subcritical phases) | 69.01 ± 0.1
323.21 K, 1014.7 kPa, Fluid (supercritical or subcritical phases) | 70.07 ± 0.1
323.21 K, 1026.1 kPa, Fluid (supercritical or subcritical phases) | 71.06 ± 0.1
323.21 K, 1037.2 kPa, Fluid (supercritical or subcritical phases) | 72 ± 0.11
323.21 K, 1048.9 kPa, Fluid (supercritical or subcritical phases) | 73.11 ± 0.11
323.21 K, 1059.5 kPa, Fluid (supercritical or subcritical phases) | 74 ± 0.11
323.21 K, 1071.8 kPa, Fluid (supercritical or subcritical phases) | 75.2 ± 0.11
323.21 K, 1084.6 kPa, Fluid (supercritical or subcritical phases) | 76.45 ± 0.11
323.21 K, 1096.6 kPa, Fluid (supercritical or subcritical phases) | 77.55 ± 0.11
323.21 K, 1108.7 kPa, Fluid (supercritical or subcritical phases) | 78.69 ± 0.12
323.21 K, 1120.7 kPa, Fluid (supercritical or subcritical phases) | 80.05 ± 0.12
323.21 K, 1132.3 kPa, Fluid (supercritical or subcritical phases) | 81.01 ± 0.12
323.21 K, 1143.9 kPa, Fluid (supercritical or subcritical phases) | 82.09 ± 0.12
323.21 K, 1155.2 kPa, Fluid (supercritical or subcritical phases) | 83.24 ± 0.12
323.21 K, 1165.7 kPa, Fluid (supercritical or subcritical phases) | 84.23 ± 0.13
323.21 K, 1176.1 kPa, Fluid (supercritical or subcritical phases) | 85.31 ± 0.13
323.21 K, 1188.5 kPa, Fluid (supercritical or subcritical phases) | 86.52 ± 0.13
323.21 K, 1200.2 kPa, Fluid (supercritical or subcritical phases) | 87.81 ± 0.13
323.21 K, 1211.6 kPa, Fluid (supercritical or subcritical phases) | 88.92 ± 0.13
323.21 K, 1222.4 kPa, Fluid (supercritical or subcritical phases) | 90.01 ± 0.13
323.21 K, 1232.6 kPa, Fluid (supercritical or subcritical phases) | 91.08 ± 0.14
323.21 K, 1244.2 kPa, Fluid (supercritical or subcritical phases) | 92.41 ± 0.14
323.21 K, 1254.9 kPa, Fluid (supercritical or subcritical phases) | 93.54 ± 0.14
323.21 K, 1265.5 kPa, Fluid (supercritical or subcritical phases) | 94.64 ± 0.14
323.21 K, 1276.2 kPa, Fluid (supercritical or subcritical phases) | 95.86 ± 0.15
323.21 K, 1286.6 kPa, Fluid (supercritical or subcritical phases) | 97.01 ± 0.15
323.21 K, 1298.7 kPa, Fluid (supercritical or subcritical phases) | 98.44 ± 0.15
323.21 K, 1311.6 kPa, Fluid (supercritical or subcritical phases) | 99.8 ± 0.15
323.21 K, 1324 kPa, Fluid (supercritical or subcritical phases) | 101.35 ± 0.16
323.21 K, 1336 kPa, Fluid (supercritical or subcritical phases) | 102.77 ± 0.16
323.21 K, 1347.5 kPa, Fluid (supercritical or subcritical phases) | 104.06 ± 0.16
323.21 K, 1358.7 kPa, Fluid (supercritical or subcritical phases) | 105.47 ± 0.16
323.21 K, 1369.5 kPa, Fluid (supercritical or subcritical phases) | 106.75 ± 0.17
323.21 K, 1380 kPa, Fluid (supercritical or subcritical phases) | 108.11 ± 0.17
323.21 K, 1392.5 kPa, Fluid (supercritical or subcritical phases) | 109.8 ± 0.17
323.21 K, 1402.5 kPa, Fluid (supercritical or subcritical phases) | 110.98 ± 0.2
323.21 K, 1410.5 kPa, Fluid (supercritical or subcritical phases) | 112.1 ± 0.23
323.21 K, 1411.1 kPa, Fluid (supercritical or subcritical phases) | 112.29 ± 0.23
323.21 K, 1411.8 kPa, Fluid (supercritical or subcritical phases) | 112.41 ± 0.23
323.21 K, 1412.5 kPa, Fluid (supercritical or subcritical phases) | 112.57 ± 0.23
323.21 K, 1413.3 kPa, Fluid (supercritical or subcritical phases) | 112.79 ± 0.29
323.21 K, 1414.6 kPa, Fluid (supercritical or subcritical phases) | 113.23 ± 0.21
323.21 K, 1415.9 kPa, Fluid (supercritical or subcritical phases) | 113.81 ± 0.22
323.21 K, 1417 kPa, Fluid (supercritical or subcritical phases) | 114.07 ± 0.23
323.21 K, 1417.8 kPa, Fluid (supercritical or subcritical phases) | 114.29 ± 0.23
323.21 K, 1418.6 kPa, Fluid (supercritical or subcritical phases) | 115.65 ± 0.28
323.21 K, 1418.8 kPa, Fluid (supercritical or subcritical phases) | 116.26 ± 0.31
323.37 K, 1419.4 kPa, Liquid | 1174.23 ± 1.2
323.37 K, 1421.5 kPa, Liquid | 1174.38 ± 1.2
323.37 K, 1423.2 kPa, Liquid | 1174.38 ± 1.2
323.37 K, 1425.7 kPa, Liquid | 1174.43 ± 1.2
323.37 K, 1427.1 kPa, Liquid | 1174.45 ± 1.2
323.37 K, 1432.2 kPa, Liquid | 1174.63 ± 1.2
323.37 K, 1436.2 kPa, Liquid | 1174.81 ± 1.2
323.37 K, 1440.4 kPa, Liquid | 1174.76 ± 1.2
323.37 K, 1445.7 kPa, Liquid | 1175 ± 1.2
323.37 K, 1451.5 kPa, Liquid | 1175.02 ± 1.2
323.37 K, 1457.1 kPa, Liquid | 1175.21 ± 1.2
323.37 K, 1466.8 kPa, Liquid | 1175.47 ± 1.2
323.37 K, 1497.2 kPa, Liquid | 1176.12 ± 1.2
323.37 K, 1510 kPa, Liquid | 1176.43 ± 1.2
323.37 K, 1522.1 kPa, Liquid | 1176.69 ± 1.2
323.37 K, 1537.1 kPa, Liquid | 1176.99 ± 1.2
323.37 K, 1549.7 kPa, Liquid | 1177.31 ± 1.2
323.37 K, 1563.1 kPa, Liquid | 1177.61 ± 1.2
323.37 K, 1577.9 kPa, Liquid | 1178.01 ± 1.2
323.37 K, 1593 kPa, Liquid | 1178.25 ± 1.2
323.37 K, 1606 kPa, Liquid | 1178.65 ± 1.2
323.37 K, 1618.2 kPa, Liquid | 1178.79 ± 1.2
323.37 K, 1633 kPa, Liquid | 1179.18 ± 1.2
323.37 K, 1650.5 kPa, Liquid | 1179.47 ± 1.2
323.37 K, 1665.3 kPa, Liquid | 1179.86 ± 1.2
323.37 K, 1679.6 kPa, Liquid | 1180.16 ± 1.2
323.37 K, 1693.1 kPa, Liquid | 1180.45 ± 1.2
323.37 K, 1699.6 kPa, Liquid | 1180.56 ± 1.2
323.37 K, 1718.6 kPa, Liquid | 1180.95 ± 1.2
323.37 K, 1737.4 kPa, Liquid | 1181.34 ± 1.2
323.37 K, 1760 kPa, Liquid | 1181.89 ± 1.2
323.37 K, 1778.2 kPa, Liquid | 1182.25 ± 1.2
323.37 K, 1797.3 kPa, Liquid | 1182.59 ± 1.2
323.37 K, 1819.1 kPa, Liquid | 1183.13 ± 1.2
323.37 K, 1845.8 kPa, Liquid | 1183.69 ± 1.2
323.37 K, 1870.4 kPa, Liquid | 1184.11 ± 1.2
323.37 K, 1897.4 kPa, Liquid | 1184.74 ± 1.2
323.37 K, 1924.8 kPa, Liquid | 1185.37 ± 1.2
323.37 K, 1943.5 kPa, Liquid | 1185.64 ± 1.2
323.37 K, 1970 kPa, Liquid | 1186.24 ± 1.2
323.37 K, 1988.8 kPa, Liquid | 1186.54 ± 1.2
323.37 K, 2013.8 kPa, Liquid | 1187.15 ± 1.2
323.37 K, 2040.4 kPa, Liquid | 1187.71 ± 1.2
323.37 K, 2074.7 kPa, Liquid | 1188.33 ± 1.2
323.37 K, 2102.6 kPa, Liquid | 1188.84 ± 1.3
323.37 K, 2129.9 kPa, Liquid | 1189.44 ± 1.3
323.37 K, 2157.7 kPa, Liquid | 1190.03 ± 1.3
323.37 K, 2186.2 kPa, Liquid | 1190.47 ± 1.3
323.37 K, 2213.3 kPa, Liquid | 1191.16 ± 1.2
323.37 K, 2277.1 kPa, Liquid | 1192.28 ± 1.2
323.37 K, 2311.9 kPa, Liquid | 1192.94 ± 1.3
323.37 K, 2338 kPa, Liquid | 1193.41 ± 1.2
323.37 K, 2366.9 kPa, Liquid | 1194 ± 1.2
323.37 K, 2396.7 kPa, Liquid | 1194.59 ± 1.2
323.37 K, 2428 kPa, Liquid | 1195.18 ± 1.2
323.37 K, 2456.3 kPa, Liquid | 1195.7 ± 1.2
323.37 K, 2482.6 kPa, Liquid | 1196.22 ± 1.2
323.37 K, 2511.2 kPa, Liquid | 1196.77 ± 1.2
323.37 K, 2547.6 kPa, Liquid | 1197.4 ± 1.2
323.37 K, 2588.4 kPa, Liquid | 1198.21 ± 1.2
323.37 K, 2628 kPa, Liquid | 1198.83 ± 1.2
323.37 K, 2671.3 kPa, Liquid | 1199.65 ± 1.2
323.37 K, 2714.7 kPa, Liquid | 1200.41 ± 1.2
323.37 K, 2754.7 kPa, Liquid | 1201.07 ± 1.2
323.37 K, 2795.1 kPa, Liquid | 1201.67 ± 1.2
323.37 K, 2833.2 kPa, Liquid | 1202.46 ± 1.2
323.37 K, 2876 kPa, Liquid | 1203.06 ± 1.2
323.37 K, 2913.9 kPa, Liquid | 1203.87 ± 1.2
323.37 K, 2953 kPa, Liquid | 1204.53 ± 1.2
323.37 K, 2989.2 kPa, Liquid | 1205.13 ± 1.2
323.37 K, 3027.6 kPa, Liquid | 1205.88 ± 1.2
323.37 K, 3069.8 kPa, Liquid | 1206.59 ± 1.2
323.37 K, 3107.8 kPa, Liquid | 1207.26 ± 1.2
323.37 K, 3148.5 kPa, Liquid | 1207.95 ± 1.2
